The values that follow are results of earlier work, collected in US8778914B2, “Bisphosphonate-prodrugs” (priority 2009, dated 2014).

Numbered stars: 1 amine (or outer) side, 2 acyl side, 3 side chain; on linkers, the order of the positions; unused ones are H or OH. Square brackets hold non-standard residues; d marks the D form. Side chains are listed from the residue outwards. Peptide text beside a SMILES is read from it. * marks the point of attachment. DAMPA = CN(Cc1cnc2nc(N)nc(N)c2n1)c1ccc(C(=O)*)cc1; Hexanoyl(6-maleimido) = O=C1C=CC(=O)N1CCCCCC(=O)*; γGlu = O=C(O)[C@H](CCC(=O)[*:2])N[*:1]

For data set [1], the target named is Cathepsin B (Homo sapiens, UniProt P07858). The following applies: releases (gamma-MTX); reported in A. Warnecke et al., Arch. Pharm. 2007.
For data set [2], the target named is plasmin (Homo sapiens, UniProt P00747). The following applies: releases (gamma-MTX); reported in A. Warnecke et al., Arch. Pharm. 2007.
The conditions of data set [3]: pH 5.0; F. Kratz et al., J. Med. Chem. 2002.

Sequence of plasmin (P00747 581-810 limits assumed, species assumed): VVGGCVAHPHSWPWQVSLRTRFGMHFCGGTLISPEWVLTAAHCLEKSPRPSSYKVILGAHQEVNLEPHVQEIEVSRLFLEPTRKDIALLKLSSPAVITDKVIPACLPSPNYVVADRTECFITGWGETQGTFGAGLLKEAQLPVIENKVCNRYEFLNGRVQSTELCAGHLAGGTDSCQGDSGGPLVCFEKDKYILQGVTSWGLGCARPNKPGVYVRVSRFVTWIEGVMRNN
Sequence of plasmin (P00747 97-580 partner limits assumed, species assumed): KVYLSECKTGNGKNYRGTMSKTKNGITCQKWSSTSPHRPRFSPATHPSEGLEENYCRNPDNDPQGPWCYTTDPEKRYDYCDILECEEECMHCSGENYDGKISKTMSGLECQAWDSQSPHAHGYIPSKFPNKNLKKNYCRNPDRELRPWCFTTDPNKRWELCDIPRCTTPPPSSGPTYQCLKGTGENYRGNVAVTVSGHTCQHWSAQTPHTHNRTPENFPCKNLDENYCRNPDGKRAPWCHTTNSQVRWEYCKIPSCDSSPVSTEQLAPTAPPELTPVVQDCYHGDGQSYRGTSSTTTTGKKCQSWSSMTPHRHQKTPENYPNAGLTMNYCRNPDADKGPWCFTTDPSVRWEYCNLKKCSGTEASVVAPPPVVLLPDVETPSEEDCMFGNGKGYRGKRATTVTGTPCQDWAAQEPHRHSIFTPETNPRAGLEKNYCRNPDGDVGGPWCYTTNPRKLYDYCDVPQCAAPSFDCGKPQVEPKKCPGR

As to `C[C@@H](NC(=O)CCCCCN1C(=O)C=CC1=O)C(=O)N[C@@H](Cc1ccccc1)C(=O)N[C@@H](CCCCN)C(=O)N[C@@H](CCCCNC(=O)CC[C@H](NC(=O)c1ccc(N(C)Cc2cnc3nc(N)nc(N)c3n2)cc1)C(=O)O)C(=O)O` [EMC-D-Ala-Phe-Lys-Lys-(gamma-MTX)-OH] ({Hexanoyl(6-maleimido)}-[dA]FKK([γGlu-DAMPA])-OH), the “cleavage by Cathepsin B” value in data set [1] is on record as “cleaved between Lys-Lys”. In addition, the cleavage by plasmin result in data set [2] is “cleaved between Lys-Lys”.

In the case of `COc1cccc2c1C(=O)c1c(O)c3c(c(O)c1C2=O)C[C@@](O)(/C(CO)=N/NC(=O)CCCCCN1C(=O)C=CC1=O)C[C@@H]3O[C@H]1C[C@H](N)[C@H](O)[C@H](C)O1` [DOXO-EMCH, 6-maleimidocaproylhydazone derivative of doxorubicin], the “acid-sensitive cleavage, release of doxorubicin” value in data set [3] is reported as “cleavable”.
